pEC50, pIC50: −log10 of the molar value.
Columns and labels:
ERK1/2 phosphorylation = assay: Western blot, ERK1/2 phosphorylation in HUVEC; format: cell-based, human
Procedure: Figure 9 Effect of COB223 on growth factor-induced VEGF-R2, MEK and ERK phosphorylations (A) Serum-starved HUVEC cells were incubated for 15 min in the presence of either 10 ng/mL VEGF-A or 20 ng/mL FGF-2 and in the absence or the presence of 25 μM COB223. The phosphorylations of VEGFR2 on tyrosine 1175 or tyrosine 1214, of MEK and ERK1/2 were then analyzed by Western blot analysis of the cell lysates as described in Material and Methods. Western blots for total VEGFR2, MEK and ERK1/2 were used as loading controls. The blots shown in Figure 9A were obtained in one representative experiment. (B) The hybridization signals observed in 5 similar but independent experiments were quantitated and the ratios between phospho-VEGFR2(Y1175) or (Y1214) and VEGFR2 signals were normalized to the value observed in the absence of COB223. (C) The hybridization signals observed in 5 similar but independent experiments were quantitated and the ratios between phospho-ERK1/2 and ERK1/2 and between phospho-MEK and MEK were normalized to the values observed in the absence of COB223. Additional experiments performed with 10% fetal calf serum (FCS) as a mitogen were included in this analysis. * : p < 0.05; ** : p < 0.01
Figure 10 Effect of PKC inhibitors on PMA-, VEGF- and FGF2-induced ERK phoshorylation (A) Serum-starved HUVEC cells were incubated for 15 min in the presence of 10 ng/mL VEGF-A or 20 ng/mL FGF-2 and in the absence or the presence of 25 μM COB223 or 5 μM Gö6983 and 5 μM Gö6976. The phosphorylation ERK1/2 was then analyzed by Western blot analysis of the cell lysates as described in Material and Methods. Western blots for total ERK1/2 were used as loading controls. (B) Serum-starved HUVEC cells were incubated for 5 min in the presence of 200 nM of PMA and in the absence or the presence of 25 μM COB223 or 5 μM Gö6983 and 5 μM Gö6976. The hybridization signals observed were quantitated and the ratio between phospho-ERK1/2 and ERK1/2 was normalized to the values observed in the absence of COB223. Similar results were obtained in 2 independent experiments.
Serum-starved HUVEC cells were incubated for 15 min in the presence of either 10 ng/mL VEGF-A or 20 ng/mL FGF-2 and in the absence or the presence of indicated concentration of COB223. COB223 was incubated 15 min prior to stimulation. Cells were lysed in RIPA buffer ( Tris HCl pH 7.4 10 mM, NaCl 150 mM, SDS 0.1%, Na Deoxycholate 0.5%, EDTA 1 mM, Triton X100 1% and protease inhibitor cocktail (Sigma) for protein extraction. After fractionation of proteins on a 4–15% SDS-PAGE gel and blotting to a nitrocellulose membrane, immunoblotting detection of proteins was done using indicated antibodies according to manufacturer's instruction.

Raf = assay: In vitro kinase assay Raf; format: biochemical; details: concentrations up to 50 μM
Procedure: (§1) We first wondered whether COB223 required to be internalized to exert its biological effect. For this, we synthesized a covalent complex between BSA and COB223 and purified it. […] In vitro kinase assays were performed with a panel of purified protein-kinases involved in mitogenic signaling, including VEGFR2, FGFR1, FGFR2, PDGFRß, Met, Raf, MEK1, ERK1, ERK2, PKCα, PKCβI, PKCβII, PKCζ as indicated in Table 2. […] We then analyzed the effect of COB223 on VEGF-induced phosphorylations of VEGFR2, MEK and ERK1/2 (Figure 9). […] (Figure 9A, 9B). […] It was also specific of the p42/p44 MAP kinase pathway as activation of p38 MAP kinase phosphorylation in HUVEC cells by VEGF or serum was unaffected by COB223 (data not shown). The activation of src phosphorylation by VEGF in HUVECs was also unaffected by COB223 (data not shown).

VEGFR2 (KDR) = VEGFR2 (KDR) (Homo sapiens, UniProt P35968); assay: In vitro kinase assay VEGFR2; format: biochemical; details: concentrations up to 50 μM
Procedure: as §1

PKCβII = PKCβII (Homo sapiens, UniProt P05771); assay: In vitro kinase assay PKCβII; format: biochemical; details: concentrations up to 50 μM
Procedure: as §1

HMEC-GFP cells = assay: Scratch wound closure assay, HMEC-GFP; format: cell-based, human; details: Homo sapiens
Excerpt: In order to adapt the endothelial scratch wounding assay to the constraints of high throughput screening, we decided to use an endothelial cell line rather than primary cultures for the sake of reproducibility. Since angiogenesis is triggered by capillary endothelial cells, we selected the HMEC-1 cell line which consists of human dermal microvascular endothelial cells stably expressing SV40 […] antigen. We infected this cell line with GFP-encoding retroviral particles and selected one clone (thereafter named HMEC-GFP) that presented a high level of fluorescence and a strong proliferation rate (doubling time in the presence of serum: 22 h). We controlled that GFP expression was stable over at least 50 passages and that these cells still expressed endothelial markers such as VE-cadherin and CD31. In a standard assay, HMEC-GFP cells were grown until confluence in 96-well plates in the presence of serum, scratched with the multi-tip dispenser of the HTS automat, gently rinsed twice to eliminate detached cells and cell debris that could liberate inflammatory and potentially angiogenic cytokines, and incubated for 24 h in the presence of serum and the compounds to be tested. Each well was photographed at time 0 h (after wounding) and 24 h under a motorized epifluorescence microscope and the digitized images were analyzed using Image J to determine the percentage of wound closure (Figure 1A, 1B). Under our standard conditions, the closure rate was 72 ± 4% in the positive controls and 27 ± 4.% in the negative controls.
Confluent cell monolayers were wounded with a plastic pipet tip, washed gently with phosphate buffer saline (PBS) and treated with complete media containing molecules, as indicated. Cells were placed at 37°C into the incubator and photographed at indicated times. Quantitation of closure of the monolayer was performed using the NIH Image J program (http://rsbweb.nih.gov/ij/). Results are expressed as percentage of wound closure at t = 24 h as compared to the initial wound at t = 0 h.

Met = Met (Homo sapiens, UniProt P08581); assay: In vitro kinase assay Met; format: biochemical; details: concentrations up to 50 μM
Procedure: as §1

FGFR2 = FGFR2 (Homo sapiens, UniProt P21802); assay: In vitro kinase assay FGFR2; format: biochemical; details: concentrations up to 50 μM
Procedure: as §1

Sequence of PKCβII (P05771 1-673 isoform P05771-2): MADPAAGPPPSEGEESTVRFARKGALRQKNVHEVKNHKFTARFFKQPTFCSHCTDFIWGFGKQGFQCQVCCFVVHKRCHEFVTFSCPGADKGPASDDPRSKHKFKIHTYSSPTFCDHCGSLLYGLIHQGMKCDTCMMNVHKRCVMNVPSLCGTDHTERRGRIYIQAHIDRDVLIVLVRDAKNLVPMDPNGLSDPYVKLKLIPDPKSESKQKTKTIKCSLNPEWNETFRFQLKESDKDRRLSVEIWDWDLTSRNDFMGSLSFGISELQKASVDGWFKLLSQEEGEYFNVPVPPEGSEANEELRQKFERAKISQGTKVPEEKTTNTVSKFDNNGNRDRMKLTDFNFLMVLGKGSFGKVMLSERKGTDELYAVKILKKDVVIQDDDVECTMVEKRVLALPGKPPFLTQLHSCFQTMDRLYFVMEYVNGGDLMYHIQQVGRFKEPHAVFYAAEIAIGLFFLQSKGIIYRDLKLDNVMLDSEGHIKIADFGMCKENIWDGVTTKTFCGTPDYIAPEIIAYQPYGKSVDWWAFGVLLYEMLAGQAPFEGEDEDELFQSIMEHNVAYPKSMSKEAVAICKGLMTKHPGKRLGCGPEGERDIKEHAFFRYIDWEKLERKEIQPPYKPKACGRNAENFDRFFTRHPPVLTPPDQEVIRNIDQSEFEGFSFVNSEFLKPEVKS
Sequence of VEGFR2 (KDR) (P35968 20-1356, species assumed): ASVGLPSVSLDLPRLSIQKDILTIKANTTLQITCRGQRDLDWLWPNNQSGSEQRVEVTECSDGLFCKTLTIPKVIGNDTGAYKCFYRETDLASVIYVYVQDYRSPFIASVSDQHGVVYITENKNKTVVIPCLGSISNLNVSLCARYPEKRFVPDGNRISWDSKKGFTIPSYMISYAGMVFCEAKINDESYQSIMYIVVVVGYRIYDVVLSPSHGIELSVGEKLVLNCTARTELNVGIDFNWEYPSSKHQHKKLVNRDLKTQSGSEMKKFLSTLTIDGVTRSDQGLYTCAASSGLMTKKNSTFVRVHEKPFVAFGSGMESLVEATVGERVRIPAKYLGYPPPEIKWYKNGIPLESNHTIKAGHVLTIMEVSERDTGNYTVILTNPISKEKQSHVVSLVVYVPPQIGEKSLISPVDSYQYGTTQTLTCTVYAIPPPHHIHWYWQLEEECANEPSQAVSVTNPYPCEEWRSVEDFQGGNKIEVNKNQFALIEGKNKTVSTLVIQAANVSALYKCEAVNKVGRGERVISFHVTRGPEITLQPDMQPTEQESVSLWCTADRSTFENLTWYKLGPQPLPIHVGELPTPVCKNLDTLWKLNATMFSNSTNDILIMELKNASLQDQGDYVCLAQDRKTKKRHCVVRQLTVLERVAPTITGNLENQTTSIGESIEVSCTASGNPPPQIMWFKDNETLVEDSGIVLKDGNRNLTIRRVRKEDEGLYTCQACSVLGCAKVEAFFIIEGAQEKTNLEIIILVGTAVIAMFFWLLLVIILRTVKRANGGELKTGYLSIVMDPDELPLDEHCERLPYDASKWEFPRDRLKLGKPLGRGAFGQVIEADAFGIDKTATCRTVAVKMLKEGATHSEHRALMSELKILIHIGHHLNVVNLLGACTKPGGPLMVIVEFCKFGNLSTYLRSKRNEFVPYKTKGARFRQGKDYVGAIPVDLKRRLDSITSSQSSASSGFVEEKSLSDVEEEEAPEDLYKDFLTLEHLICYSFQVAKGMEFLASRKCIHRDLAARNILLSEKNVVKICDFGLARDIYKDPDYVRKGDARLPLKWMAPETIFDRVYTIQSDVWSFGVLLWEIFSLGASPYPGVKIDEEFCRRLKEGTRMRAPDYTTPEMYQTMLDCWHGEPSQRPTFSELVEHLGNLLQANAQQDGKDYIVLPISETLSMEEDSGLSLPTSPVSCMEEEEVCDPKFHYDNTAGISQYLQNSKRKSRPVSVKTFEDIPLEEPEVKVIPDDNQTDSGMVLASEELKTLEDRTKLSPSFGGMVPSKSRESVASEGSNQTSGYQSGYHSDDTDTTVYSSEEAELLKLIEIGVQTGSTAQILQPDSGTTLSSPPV
Sequence of FGFR2 (P21802 22-821, species assumed): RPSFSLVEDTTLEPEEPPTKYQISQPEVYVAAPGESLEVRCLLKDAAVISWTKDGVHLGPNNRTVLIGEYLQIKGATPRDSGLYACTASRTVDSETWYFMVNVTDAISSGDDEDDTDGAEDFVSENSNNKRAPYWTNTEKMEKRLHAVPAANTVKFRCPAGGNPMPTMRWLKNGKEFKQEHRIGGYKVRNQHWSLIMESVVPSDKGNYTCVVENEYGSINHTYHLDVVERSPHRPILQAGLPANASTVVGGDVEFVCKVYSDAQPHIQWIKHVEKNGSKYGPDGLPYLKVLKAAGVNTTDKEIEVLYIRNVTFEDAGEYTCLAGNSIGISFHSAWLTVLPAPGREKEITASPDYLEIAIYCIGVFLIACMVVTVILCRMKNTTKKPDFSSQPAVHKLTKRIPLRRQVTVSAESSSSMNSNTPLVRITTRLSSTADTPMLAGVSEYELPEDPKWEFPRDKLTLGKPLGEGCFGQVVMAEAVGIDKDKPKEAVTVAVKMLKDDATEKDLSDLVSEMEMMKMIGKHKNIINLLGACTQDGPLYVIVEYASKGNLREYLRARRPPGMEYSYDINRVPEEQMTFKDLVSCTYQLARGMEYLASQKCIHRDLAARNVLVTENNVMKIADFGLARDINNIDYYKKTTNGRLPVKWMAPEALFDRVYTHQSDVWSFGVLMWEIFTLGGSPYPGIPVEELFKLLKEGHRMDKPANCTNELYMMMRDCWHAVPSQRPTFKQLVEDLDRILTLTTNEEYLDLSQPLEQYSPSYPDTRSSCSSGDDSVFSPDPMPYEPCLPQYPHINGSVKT
Sequence of Met (P08581 25-1390): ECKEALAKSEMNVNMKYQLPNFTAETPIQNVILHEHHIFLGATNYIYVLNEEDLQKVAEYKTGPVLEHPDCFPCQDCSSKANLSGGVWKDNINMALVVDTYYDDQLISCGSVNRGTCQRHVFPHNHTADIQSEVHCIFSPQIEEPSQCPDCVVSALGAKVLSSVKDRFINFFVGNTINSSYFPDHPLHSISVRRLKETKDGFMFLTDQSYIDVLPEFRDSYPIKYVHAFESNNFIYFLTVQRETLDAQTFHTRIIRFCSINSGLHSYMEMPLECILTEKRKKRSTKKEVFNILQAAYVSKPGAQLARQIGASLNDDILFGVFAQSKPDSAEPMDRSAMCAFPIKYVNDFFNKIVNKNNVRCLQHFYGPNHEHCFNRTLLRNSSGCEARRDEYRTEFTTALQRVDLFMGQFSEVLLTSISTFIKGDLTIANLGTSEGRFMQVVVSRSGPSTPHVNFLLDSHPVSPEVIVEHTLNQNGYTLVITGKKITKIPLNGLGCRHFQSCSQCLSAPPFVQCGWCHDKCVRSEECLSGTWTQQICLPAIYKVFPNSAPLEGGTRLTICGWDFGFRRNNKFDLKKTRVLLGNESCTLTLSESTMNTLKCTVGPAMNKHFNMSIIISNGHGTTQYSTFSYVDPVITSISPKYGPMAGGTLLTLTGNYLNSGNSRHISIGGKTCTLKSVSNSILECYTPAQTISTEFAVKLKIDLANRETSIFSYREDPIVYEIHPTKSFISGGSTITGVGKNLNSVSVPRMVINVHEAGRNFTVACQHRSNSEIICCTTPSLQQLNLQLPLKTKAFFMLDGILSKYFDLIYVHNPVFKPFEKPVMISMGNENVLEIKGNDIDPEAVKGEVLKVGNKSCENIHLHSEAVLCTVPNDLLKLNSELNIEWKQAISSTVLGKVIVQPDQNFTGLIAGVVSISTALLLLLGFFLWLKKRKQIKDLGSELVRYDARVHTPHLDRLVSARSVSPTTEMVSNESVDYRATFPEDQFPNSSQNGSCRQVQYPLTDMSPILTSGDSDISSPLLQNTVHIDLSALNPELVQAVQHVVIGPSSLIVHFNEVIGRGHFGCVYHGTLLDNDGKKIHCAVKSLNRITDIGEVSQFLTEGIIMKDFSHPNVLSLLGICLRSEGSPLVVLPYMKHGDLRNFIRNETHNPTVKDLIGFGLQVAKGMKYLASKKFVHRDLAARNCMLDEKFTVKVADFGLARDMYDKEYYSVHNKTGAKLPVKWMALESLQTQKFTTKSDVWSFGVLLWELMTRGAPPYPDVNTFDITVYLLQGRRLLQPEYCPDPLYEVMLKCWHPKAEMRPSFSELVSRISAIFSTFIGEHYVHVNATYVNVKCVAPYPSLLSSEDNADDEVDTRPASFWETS

CN(C)c1cccc2c(S(=O)(=O)NCCCN3CCN(CCCNC(=O)OC(C)(C)C)CC3)cccc12 [COB223, tert-Butyl 3-(4-(3-(5-(dimethylamino)naphthalene-1-sulfonamido)propyl)piperazin-1-yl) propylcarbamate]
VEGF-induced phosphorylation of ERK1/2 (ERK1/2 phosphorylation; HUVEC, 10 ng/mL VEGF-A 15 min, 25 μM COB223): significantly inhibited | phosphorylation of ERK1/2 induced by the PKC activator PMA (ERK1/2 phosphorylation; HUVEC, 200 nM PMA 5 min, 25 μM COB223): inhibited | concentration at which inhibition of MAP kinase phosphorylation was detectable (ERK1/2 phosphorylation; dose-response study): 5 µM | concentration at which inhibition of MAP kinase phosphorylation was statistically significant (ERK1/2 phosphorylation; dose-response study): 20 µM | kinase inhibition (Raf): None of them was inhibited | kinase inhibition (VEGFR2 (KDR)): None of them was inhibited | kinase inhibition (PKCβII): None of them was inhibited | pEC50 (HMEC-GFP cells; as quoted): 5.30 | pIC50 (HMEC-GFP cells; wound closure after 24 h, 10% FCS, tested 3.125 μM to 100 μM): 5.30 | kinase inhibition (Met): None of them was inhibited | kinase inhibition (FGFR2): None of them was inhibited
